From the NIST ThermoML archive (doi:10.1021/je500498m)

Assay: xn = mol fraction of the nth substance listed
Conditions: for speed of sound: 100 kPa, Sing-around technique in a fixed-path interferometer; for speed of sound / viscosity / mass density: Liquid; for viscosity / mass density: 101 kPa; for viscosity: Falling or rolling sphere viscometry; for mass density: Vibrating tube method; for surface tension liquid-gas: 294.4 K, Pendant drop shape

CCCCCCCCCCCCCCCC [hexadecane] + Cc1ccccc1
Conditions | mass density [kg/m3] | speed of sound [m/s] | viscosity [mPa·s]
293.15 K, x2 = 0 | 773.49 | 1357.3 | 3.44
293.15 K, x2 = 0.1002 | 776.71 | 1352.9 | 3.03
293.15 K, x2 = 0.2 | 780.38 | 1348.1 | 2.64
293.15 K, x2 = 0.3018 | 784.83 | 1343.1 | 2.28
293.15 K, x2 = 0.4001 | 789.87 | 1337.2 | 1.96
293.15 K, x2 = 0.5 | 796.1 | 1332 | 1.66
293.15 K, x2 = 0.6001 | 803.76 | 1326.5 | 1.4
293.15 K, x2 = 0.7005 | 813.44 | 1321.5 | 1.16
293.15 K, x2 = 0.8001 | 825.95 | 1318 | 0.94
293.15 K, x2 = 0.8999 | 842.77 | 1318 | 0.76
303.15 K, x2 = 0 | 766.55 | 1320 | 2.72
303.15 K, x2 = 0.1002 | 769.7 | 1315.5 | 2.42
303.15 K, x2 = 0.2 | 773.29 | 1310.6 | 2.14
303.15 K, x2 = 0.3018 | 777.64 | 1305.5 | 1.87
303.15 K, x2 = 0.4001 | 782.56 | 1299.4 | 1.63
303.15 K, x2 = 0.5 | 788.63 | 1293.9 | 1.4
303.15 K, x2 = 0.6001 | 796.11 | 1288 | 1.19
303.15 K, x2 = 0.7005 | 805.54 | 1282.4 | 1
303.15 K, x2 = 0.8001 | 817.73 | 1278.2 | 0.82
303.15 K, x2 = 0.8999 | 834.11 | 1277 | 0.67
313.15 K, x2 = 0 | 759.63 | 1283.3 | –
313.15 K, x2 = 0.1002 | 762.7 | 1278.7 | –
313.15 K, x2 = 0.2 | 766.2 | 1273.6 | –
313.15 K, x2 = 0.3018 | 770.44 | 1268.4 | –
313.15 K, x2 = 0.4001 | 775.24 | 1262.1 | –
313.15 K, x2 = 0.5 | 781.15 | 1256.2 | –
313.15 K, x2 = 0.6001 | 788.42 | 1250 | –
313.15 K, x2 = 0.7005 | 797.59 | 1243.8 | –
313.15 K, x2 = 0.8001 | 809.46 | 1238.8 | –
313.15 K, x2 = 0.8999 | 825.38 | 1236.4 | –
323.15 K, x2 = 0 | 752.71 | 1247.3 | 1.82
323.15 K, x2 = 0.1002 | 755.7 | 1242.6 | 1.65
323.15 K, x2 = 0.2 | 759.11 | 1237.4 | 1.49
323.15 K, x2 = 0.3018 | 763.23 | 1231.9 | 1.33
323.15 K, x2 = 0.4001 | 767.89 | 1225.4 | 1.18
323.15 K, x2 = 0.5 | 773.64 | 1219.2 | 1.04
323.15 K, x2 = 0.6001 | 780.71 | 1212.5 | 0.9
323.15 K, x2 = 0.7005 | 789.6 | 1205.7 | 0.77
323.15 K, x2 = 0.8001 | 801.12 | 1199.9 | 0.64
323.15 K, x2 = 0.8999 | 816.6 | 1196.3 | 0.52
333.15 K, x2 = 0 | 745.79 | 1212 | 1.54
333.15 K, x2 = 0.1002 | 748.7 | 1207.1 | 1.4
333.15 K, x2 = 0.2 | 752 | 1201.7 | 1.27
333.15 K, x2 = 0.3018 | 756 | 1196 | 1.15
333.15 K, x2 = 0.4001 | 760.53 | 1189.2 | 1.03
333.15 K, x2 = 0.5 | 766.1 | 1182.7 | 0.9
333.15 K, x2 = 0.6001 | 772.93 | 1175.6 | 0.79
333.15 K, x2 = 0.7005 | 781.29 | 1168.2 | 0.67
333.15 K, x2 = 0.8001 | 792.74 | 1161.7 | 0.56
333.15 K, x2 = 0.8999 | 807.75 | 1156.7 | 0.47
343.15 K, x2 = 0 | 738.9 | – | 1.31
343.15 K, x2 = 0.1002 | 741.7 | – | 1.21
343.15 K, x2 = 0.2 | 744.9 | – | 1.1
343.15 K, x2 = 0.3018 | 748.9 | – | 1
343.15 K, x2 = 0.4001 | 753.2 | – | 0.89
343.15 K, x2 = 0.5 | 758.6 | – | 0.8
343.15 K, x2 = 0.6001 | 765.2 | – | 0.69
343.15 K, x2 = 0.7005 | 773.6 | – | 0.6
343.15 K, x2 = 0.8001 | 784.3 | – | 0.51
343.15 K, x2 = 0.8999 | 798.8 | – | 0.43
353.15 K, x2 = 0 | 731.8 | – | 1.13
353.15 K, x2 = 0.1002 | 734.5 | – | 1.05
353.15 K, x2 = 0.2 | 737.7 | – | 0.96
353.15 K, x2 = 0.3018 | 741.4 | – | 0.87
353.15 K, x2 = 0.4001 | 745.7 | – | 0.79
353.15 K, x2 = 0.5 | 750.9 | – | 0.7
353.15 K, x2 = 0.6001 | 757.2 | – | 0.61
353.15 K, x2 = 0.7005 | 765.3 | – | 0.54
353.15 K, x2 = 0.8001 | 775.7 | – | 0.46
353.15 K, x2 = 0.8999 | 789.7 | – | 0.39
363.15 K, x2 = 0 | 724.7 | – | 0.99
363.15 K, x2 = 0.1002 | 727.3 | – | 0.92
363.15 K, x2 = 0.2 | 730.4 | – | 0.85
363.15 K, x2 = 0.3018 | 733.9 | – | 0.77
363.15 K, x2 = 0.4001 | 738 | – | 0.7
363.15 K, x2 = 0.5 | 743.1 | – | 0.62
363.15 K, x2 = 0.6001 | 749.2 | – | 0.55
363.15 K, x2 = 0.7005 | 756.9 | – | 0.48
363.15 K, x2 = 0.8001 | 767 | – | 0.4
363.15 K, x2 = 0.8999 | 780.4 | – | 0.33
373.15 K, x2 = 0 | 717.5 | – | 0.87
373.15 K, x2 = 0.1002 | 720 | – | 0.81
373.15 K, x2 = 0.2 | 722.9 | – | 0.76
373.15 K, x2 = 0.3018 | 726.3 | – | 0.69
373.15 K, x2 = 0.4001 | 730.3 | – | 0.64
373.15 K, x2 = 0.5 | 735.1 | – | 0.56
373.15 K, x2 = 0.6001 | 741 | – | –
373.15 K, x2 = 0.7005 | 748.5 | – | –
373.15 K, x2 = 0.8001 | 758 | – | –

Conditions | surface tension liquid-gas [mN/m]
x2 = 0 | 27.3
x2 = 0.4001 | 27.3
x2 = 0.5 | 27.5
x2 = 0.6001 | 27.6
x2 = 0.7006 | 27.7
x2 = 0.8001 | 27.8
x2 = 0.8999 | 28
